Assay results from patent EP4678638A1, “NEW E3 UBIQUITIN LIGASE LIGAND, PROTEIN DEGRADATION AGENT AND USE THEREOF” (priority 2023, dated 2024).
pIC50: −log10 of the molar value. Where two headings read alike, the source gives them in different places. One block for each compound: values may come before it.

Legend:
[1] = biological target: T1, FAK (Homo sapiens, UniProt Q05397); assay: Western blot degradation of FAK; format: cell-based; conditions: Table D7
T1 construct: evaluate the effects of the compounds of the present disclosure on the expression of target proteins in cells; endogenous in cells
Experimental: Conventional Western blot assay was performed to evaluate the effects of the compounds of the present disclosure on the expression of target proteins in cells.
(1) Cell Seeding and Protein Harvesting: The selected cells were processed according to the cell seeding procedure and protein harvesting procedure in Table III-2. Table III-2 Cell Seeding and Protein Harvesting Procedures
(2) To the collected supernatant, 5X SDS sample loading buffer was added, followed by denaturation at 95°C for 5 minutes. The denatured samples were then separated by SDS-PAGE electrophoresis on a polyacrylamide gel. Proteins were transferred to a nitrocellulose membrane (0.45 µm NC membrane), blocked with blocking buffer at room temperature for 1 hour, and subjected to antibody incubation and development procedures according to the antibody manufacturer's instructions (Cell Signaling Technology).
Half-Maximal Degradation Concentration value (the drug concentration required for degrading proteins by 50%, abbreviated as DC50) reads method: comparing the grayscale values of Western blot bands from drug-treated samples with those from blank DMSO-treated controls, and identifying the drug concentration range at which the grayscale value is half that of the DMSO-treated control bands.
DC50 values can be calculated using ImageJ software to measure grayscale values of Western blot bands from drug-treated samples. The concentration-response curve is fitted to estimate the drug concentration corresponding to half the grayscale value.
Target protein remaining (%) refers to the percentage of target protein remaining in hPBMC cells after treatment with protein degrader compounds.
Calculation method for target protein remaining (%): Use ImageJ software to measure grayscale values of Western blot bands from drug (protein degrader)-treated samples. The grayscale value of drug-treated bands is divided by that of internal control protein bands, and the resulting quotient is normalized to obtain the relative percentage of remaining target protein after protein degrader treatment.
Target protein degradation rate (%) = 100% - target protein remaining (%).

[2] = system: Jurkat; assay: CCK-8 proliferation, Jurkat; format: cell-based, Human; conditions: for pIC50: Jurkat, CCK-8, 96 hours, read-out: Inhibitory activity (IC50) on tumor cell proliferation, Jurkat; for IC50: Table B10, compounds designed based on the IRAK4 inhibitors, Jurkat cells, read-out: Inhibitory activity (IC50, nM) on tumor cell proliferation, Jurkat
Experimental: The tumor cells used herein were cultured in a cell culture medium listed in table A1 at 37°C in an incubator with 5% CO2. Prior to experimentation, all cell lines used were correctly identified by STR profiling, and tested negative for mycoplasma contamination using a mycoplasma detection kit through routine screenings. Table A1. Tumor cells and cell culture medium used in the present disclosure
IC50 values of the compounds of the present disclosure (including the compounds in Table 1, and compounds of examples) were measured using the Meilun Cell Counting Kit-8 kit from Dalian Meilun Biotech Co., Ltd. Assay details are as follows: tumor cells were seeded in a 96-well plate at a density listed in Table A2. After 24h, 100 µL of the inoculated cells were treated with 0.5µL of the compounds of the present disclosure (including the compounds in Tables 1 and 2, and compounds of examples) at 10 different successively decreasing concentrations (starting at the highest concentration of 10µM; 5-fold serial dilutions). After the cells were treated with the compounds of the present disclosure for a period of time, the cell viability detection reagent was added to the culture medium for cell viability assessment according to the instructions provided with the CCK-8 kit. […] The growth inhibition of the compounds of the present disclosure on cells was plotted by Prism Graphpad software, and the IC50 values of the compounds of the present disclosure were calculated therefrom. […] Seeding protocol and treatment time for tumor cells

[3] = system: CCRF-CEM; assay: CCK-8 proliferation, CCRF-CEM; format: cell-based, Human; conditions: Homo sapiens, CCRF-CEM; CCK-8; 96 hours; read-out: Inhibitory activity (IC50) on tumor cell proliferation, CCRF-CEM
Procedure, shortened: (§1)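 Tumor cells were cultured at 37°C with 5% CO2, seeded, and after 24h treated with compounds at 10 concentrations starting at 10µM (5-fold serial dilutions).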

[4] = system: MM.1S; assay: CCK-8 proliferation, MM.1S; format: cell-based; conditions: Table B10, compounds designed based on the IRAK4 inhibitors, MM.1S cells, read-out: Inhibitory activity (IC50, nM) on tumor cell proliferation, MM.1S
Procedure, shortened: as §1

[5] = system: SR; assay: CCK-8 proliferation, SR; format: cell-based, Human; conditions: Table B10, compounds designed based on the IRAK4 inhibitors, SR cells, read-out: Inhibitory activity (IC50, nM) on tumor cell proliferation, SR
Procedure, shortened: as §1

[6] = biological target: T2, IRAK4 (Homo sapiens, UniProt Q9NWZ3); assay: Western blot degradation of IRAK4 (hPBMC); format: cell-based; conditions: Table D1
T2 construct: evaluate the effects of the compounds of the present disclosure on the expression of target proteins in cells; endogenous in cells; host or cells: hPBMC
T2 sequence (Q9NWZ3 1-460): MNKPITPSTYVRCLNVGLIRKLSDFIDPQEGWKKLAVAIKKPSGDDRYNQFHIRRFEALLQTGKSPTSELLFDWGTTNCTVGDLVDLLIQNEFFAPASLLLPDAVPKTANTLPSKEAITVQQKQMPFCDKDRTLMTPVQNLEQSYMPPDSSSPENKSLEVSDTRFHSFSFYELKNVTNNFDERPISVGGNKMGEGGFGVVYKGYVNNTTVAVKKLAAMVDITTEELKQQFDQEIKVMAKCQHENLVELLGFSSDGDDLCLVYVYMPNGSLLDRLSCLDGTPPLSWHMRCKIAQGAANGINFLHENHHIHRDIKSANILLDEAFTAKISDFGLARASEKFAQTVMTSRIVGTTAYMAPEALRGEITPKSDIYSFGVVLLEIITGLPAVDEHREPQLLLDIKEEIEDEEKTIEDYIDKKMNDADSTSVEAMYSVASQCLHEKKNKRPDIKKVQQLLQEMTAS
Procedure, shortened: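 After compound exposure, cells were harvested and lysates run on SDS-PAGE, transferred to nitrocellulose and probed with antibodies. Remaining target (%) was computed from band grayscale relative to an internal control protein and normalised; degradation (%) was 100% minus that.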

T1 sequence (Q05397 whole entry, species assumed): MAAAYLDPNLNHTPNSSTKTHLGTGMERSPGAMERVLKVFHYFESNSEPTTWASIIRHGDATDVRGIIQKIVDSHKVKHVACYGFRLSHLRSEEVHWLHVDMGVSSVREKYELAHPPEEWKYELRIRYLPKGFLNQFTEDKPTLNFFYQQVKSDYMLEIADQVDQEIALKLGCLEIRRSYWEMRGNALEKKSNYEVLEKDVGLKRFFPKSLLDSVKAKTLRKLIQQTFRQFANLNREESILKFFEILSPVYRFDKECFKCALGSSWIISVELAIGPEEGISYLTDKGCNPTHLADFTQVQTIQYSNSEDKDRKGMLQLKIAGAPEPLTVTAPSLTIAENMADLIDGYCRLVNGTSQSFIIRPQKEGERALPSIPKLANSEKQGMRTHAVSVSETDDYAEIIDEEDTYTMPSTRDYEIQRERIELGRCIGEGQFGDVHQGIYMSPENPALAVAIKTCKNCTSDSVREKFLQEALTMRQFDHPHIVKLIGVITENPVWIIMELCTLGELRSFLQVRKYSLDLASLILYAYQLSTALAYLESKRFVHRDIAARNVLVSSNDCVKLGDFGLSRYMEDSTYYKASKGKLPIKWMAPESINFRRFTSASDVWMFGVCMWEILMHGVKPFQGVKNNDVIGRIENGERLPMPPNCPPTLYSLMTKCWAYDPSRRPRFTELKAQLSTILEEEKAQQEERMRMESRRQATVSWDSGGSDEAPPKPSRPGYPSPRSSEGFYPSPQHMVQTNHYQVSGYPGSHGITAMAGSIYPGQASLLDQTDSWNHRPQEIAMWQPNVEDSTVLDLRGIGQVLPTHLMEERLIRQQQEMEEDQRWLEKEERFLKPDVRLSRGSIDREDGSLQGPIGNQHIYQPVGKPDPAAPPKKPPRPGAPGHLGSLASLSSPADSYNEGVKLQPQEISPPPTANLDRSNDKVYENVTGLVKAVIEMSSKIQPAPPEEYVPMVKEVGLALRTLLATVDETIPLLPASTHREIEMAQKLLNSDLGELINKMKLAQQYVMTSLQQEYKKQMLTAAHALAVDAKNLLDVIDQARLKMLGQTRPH

SMILES: CS(=O)(=O)c1cccc(CNc2nc(Nc3ccc(N4CCN(Cc5ccc(C6CCC(=O)NC6=O)cc5)CC4)cc3)ncc2C(F)(F)F)c1 (stereo not shown) [GT-03822, 3-(4-((4-(4-((4-((3-(methylsulfonyl)benzyl)amino)-5-(trifluoromethyl)pyrimidin-2-yl)amino)phenyl)piperazin-1-yl)methyl)phenyl)piperidine-2,6-dione]
Degradation of substrate protein FAK (substrate protein remaining %) [1]: A (A is defined as 0% ≤ substrate protein remaining % ≤ 80%)

pIC50 ([2]; Homo sapiens): 7.30 to 8.00
pIC50 [3]: 7.30 to 8.00
SMILES: CC1(C)CCC(c2ccc(Cl)cc2)=C(CN2CCN(c3ccc(C(=O)NS(=O)(=O)c4ccc(N[C@H](CCN5CCN(Cc6ccnc(N7CCC(=O)NC7=O)c6)CC5)CSc5ccccc5)c(S(=O)(=O)C(F)(F)F)c4)cc3)CC2)C1 [GT-07717, (R)-4-(4-((4'-chloro-4,4-dimethyl-3,4,5,6-tetrahydro-[1,1'-biphenyl]-2-yl)methyl)piperazin-1-yl)-N-((4-((4-(4-((2-(2,4-dioxotetrahydropyrimidin-1(2H)-yl)pyridin-4-yl)methyl)piperazin-1-yl)-1-(phenylthio)butan-2-yl)amino)-3-((trifluoromethyl)sulfonyl)phenyl)sulfonyl)benzamide]

SMILES: CNC(=O)c1ccccc1Nc1cc(Nc2ccc(N3CCC(N(C)Cc4cccc(N5CCC(=O)NC5=O)c4)CC3)cc2OC)ncc1C(F)(F)F [GT-07650, 2-((2-((4-(4-((3-(2,4-dioxotetrahydropyrimidin-1(2H)-yl)benzyl)(methyl)amino)piperidin-1-yl)-2-methoxyphenyl)amino)-5-(trifluoromethyl)pyridin-4-yl)amino)-N-methylbenzamide]
Degradation of substrate protein FAK (substrate protein remaining %) [1]: A (A is defined as 0% ≤ substrate protein remaining % ≤ 80%)

SMILES: CNC(=O)c1ccccc1Nc1cc(Nc2ccc(N3CCC(N(C)Cc4ccc(N5CCC(=O)NC5=O)cc4)CC3)cc2OC)ncc1C(F)(F)F [GT-07649, 2-((2-((4-(4-((4-(2,4-dioxotetrahydropyrimidin-1(2H)-yl)benzyl)(methyl)amino)piperidin-1-yl)-2-methoxyphenyl)amino)-5-(trifluoromethyl)pyridin-4-yl)amino)-N-methylbenzamide]
Degradation of substrate protein FAK (substrate protein remaining %) [1]: A (A is defined as 0% ≤ substrate protein remaining % ≤ 80%)

SMILES: CS(=O)(=O)c1cccc(CNc2nc(Nc3ccc(N4CCN(Cc5cccc(N6CCC(=O)NC6=O)c5)CC4)cc3)ncc2C(F)(F)F)c1 [GT-04178, 1-(3-((4-(4-((4-((3-(methylsulfonyl)benzyl)amino)-5-(trifluoromethyl)pyrimidin-2-yl)amino)phenyl)piperazin-1-yl)methyl)phenyl)dihydropyr imidine-2,4(1H,3H)-dione]
Degradation of substrate protein FAK (substrate protein remaining %) [1]: A (A is defined as 0% ≤ substrate protein remaining % ≤ 80%)

SMILES: CS(=O)(=O)c1cccc(CNc2nc(Nc3ccc(N4CCN(Cc5ccc(C6CCC(=O)NC6=O)cn5)CC4)cc3)ncc2C(F)(F)F)c1 (stereo not shown) [GT-07466, 3-(6-((4-(4-((4-((3-(methylsulfonyl)benzyl)amino)-5-(trifluoromethyl)pyrimidin-2-yl)amino)phenyl)piperazin-1-yl)methyl)pyridin-3-yl)piperidine-2,6-dione]
Degradation of substrate protein FAK (substrate protein remaining %) [1]: A (A is defined as 0% ≤ substrate protein remaining % ≤ 80%)

IC50 ([4]; Homo sapiens, MM1.S): 500 to 1000 nM
IC50 ([2]; Homo sapiens): 500 to 1000 nM
SMILES: O=C1CCC(c2ccc(CN3CCC(N4CCN(c5ccc6c(c5)nc(NC(=O)c5cccc(C(F)(F)F)c5)n6[C@H]5CC[C@@H](CO)CC5)CC4)CC3)cc2)C(=O)N1 (stereo partly shown) [GT-05020, N-(5-(4-(1-(4-(2,6-dioxopiperidin-3-yl)benzyl)piperidin-4-yl)piperazin-1-yl)-1-((1s,4s)-4-(hydroxymethyl)cyclohexyl) -1H-benzo[d]imidazol-2-yl)-3-(trifluoromethyl)benzamide]
IC50 ([5]; Homo sapiens): 500 to 1000 nM

SMILES: O=C1CCC(Nc2cccc(CN3CCC(N4CCN(c5ccc6c(c5)nc(NC(=O)c5cccc(C(F)(F)F)c5)n6[C@H]5CC[C@@H](CO)CC5)CC4)CC3)c2)C(=O)N1 (stereo partly shown) [GT-05023, N-(5-(4-(1-(3-((2,6-dioxopiperidin-3-yl)amino)benzyl)piperidin-4-yl)piperazin-1-yl)-1-((1s,4s)-4-(hydroxymethyl)cyclohexyl) -1H-benzo[d]imidazol-2-yl)-3-(trifluoromethyl)benzamide]
IC50 ([4]; Homo sapiens, MM1.S): 500 to 1000 nM
IC50 ([2]; Homo sapiens): 500 to 1000 nM
Degradation of substrate protein IRAK4 (substrate protein remaining %) [6]: A (A is defined as 0% ≤ substrate protein remaining % ≤ 80%)
IC50 ([5]; Homo sapiens): 500 to 1000 nM

IC50 [4]: 500 to 1000 nM
IC50 [2]: 500 to 1000 nM
SMILES: O=C1CCN(c2ccc(CN3CCC(N4CCN(c5ccc6c(c5)nc(NC(=O)c5cccc(C(F)(F)F)c5)n6[C@H]5CC[C@@H](CO)CC5)CC4)CC3)cn2)C(=O)N1 [GT-05025, N-(5-(4-(1-((6-(2,4-dioxotetrahydropyrimidin-1(2H)-yl)pyridin-3-yl)methyl)piperidin-4-yl)piperazin-1-yl)-1-((1s,4s)-4-(hydroxymethyl)cyclohexyl) -1H-benzo[d]imidazol-2-yl)-3-(trifluoromethyl)benzamide]
IC50 [5]: 500 to 1000 nM

pIC50 ([2]; Homo sapiens): 7.00 to 7.30
pIC50 [3]: 7.30 to 8.00
SMILES: CC1(C)CCC(c2ccc(Cl)cc2)=C(CN2CCN(c3ccc(C(=O)NS(=O)(=O)c4ccc(N[C@H](CCN5CCN(Cc6cc(N7CCC(=O)NC7=O)ncc6F)CC5)CSc5ccccc5)c(S(=O)(=O)C(F)(F)F)c4)cc3)CC2)C1 [GT-07716, (R)-4-(4-((4'-chloro-4,4-dimethyl-3,4,5,6-tetrahydro-[1,1'-biphenyl]-2-yl)methyl)piperazin-1-yl)-N-((4-((4-(4-((2-(2,4-dioxotetrahydropyrimidin-1(2H)-yl)-5-fluoropyridin-4-yl)methyl)piperazin-1-yl)-1-(phenylthio)butan-2-yl)amino)-3-((trifluoromethyl)sulfonyl)phenyl)sulfonyl)benzamide]
